The source of these data is patent US20060025566A1, “Macrocyclic modulators of the ghrelin receptor” (Tranzyme Pharma Inc., priority 2003, published 2006).

Read-outs that look alike come from different tables or passages of the source.

Series [1] deals with T1, human growth hormone secretagogue receptor (hGHS-R1a) (Homo sapiens, UniProt Q92847).
T1 construct: purchased PerkinElmer BioSignal #RBHGHSM, lot#1887; host or cells: HEK-293, stably transfected (membranes)
As to the kind of experiment: Competitive radioligand binding assay (ghrelin receptor), [125I]-ghrelin displacement on GHS-R/HEK 293 membranes. The note with it: read-out: Ki.

The target in the next series is motilin receptor (Homo sapiens, UniProt O43193). As to the kind of experiment: Selectivity for the ghrelin receptor versus the motilin receptor. It is filed as binding. An excerpt:
The level of agonist activity and selectivity for representative compounds of the invention are shown below in Table 4.

Series [2] addresses human ghrelin receptor (hGHS-R1a) (Homo sapiens, UniProt Q92847). As to the kind of experiment: Aequorin functional assay (ghrelin receptor), CHO-K1 cells co-expressing Gα16 and aequorin. The note with it: functional (agonist) activity, standard method; TFA salts unless otherwise noted. The series is classed as cell-based. An excerpt:
Coelenterazine (Molecular Probes, Leiden, The Netherlands). […] Compound Handling
• 1. […] Key Aspects of Method • 1. […] Results

The test system of a further series is morphine-treated rats. As to the kind of experiment: Model of opioid-delayed gastric emptying and gastrointestinal transit (morphine) in rats. Particulars: 3 mg/kg s.c., FIG. 16A. The series is classed as in vivo, rat. An excerpt:
7. The Effect of Compounds of the Invention on Gastric Emptying and Gastrointestinal Transit in a Model of Opioid-Delayed Gastric Emptying
Opioid analgesics, such as morphine, are well known to delay gastrointestinal transit which is an important side-effect for this class of drugs. The clinical term for this syndrome is opioid bowel dysfunction (OBD). Importantly, patients recovering from abdominal surgery experience post-operative ileus that is further exacerbated by concomitant opioid therapy for post-surgical pain.
• 1. […] Methods • 1. Rats (male, Sprague-Dawley, 250-300 g) are implanted with jugular vein catheters to accommodate dosing of test articles. • 2. Overnight-fasted rats are administered morphine (3 mg/kg s.c.). • 3. […] Radioactivity (^99mTc) in each tissue isolate is measured as a means of measuring the transit of the meal. Results

Series [3] relates to gastric emptying in fasted rats. Nature of the series: Gastric emptying in fasted rats (phenol red methylcellulose meal). The series is classed as in vivo, rat. On the procedure:
To examine the effects of compounds of the invention in a model for gastroparesis, compounds were evaluated for possible effects on gastric emptying in fasted rats.
GHRP-6 and test samples were dissolved in vehicle of 9% HPBCD/0.9% NaCl. Immediately following oral administration of methylcellulose (2%) containing phenol red (0.05%) (2 mL/rat), test substances or vehicle (9% HPBCD/0.9% NaCl) were each administered intravenously (i.v.) at a dosing volume of 5 mL/kg.
Male Wistar rats were provided by LASCO (A Charles River Licensee Corporation, Taiwan). Space allocation for 6 animals was 45×23×15 cm. Animals were housed in APEC® cages and maintained in a controlled temperature (22° C.-24° C.) and humidity (60%-80%) environment with 12 h light, 12 h dark cycles for at least one week in the laboratory prior to being used. Free access to standard lab chow for rats (Lab Diet, Rodent Diet, PMI Nutrition International, USA) and tap water was granted. All aspects of this work including housing, experimentation and disposal of animals were performed in general accordance with the Guide for the Care and Use of Laboratory Animals (National Academy Press, Washington, D.C., 1996).
Test substances were each administered intravenously to a group of 5 O/N-fasted Wistar derived male rats weighing 200±20 g immediately after methylcellulose (2%) containing phenol red (0.05%) was administered orally at 2 mL/animal. […] Following protein precipitation by 20% trichloroacetic acid (0.5 mL) and re-alkalization of the supernatant with 0.1 N NaOH, total phenol red remaining in the stomach was determined by a colorimetric method at 560 nm. A 30 percent or more (≧30%) increase in gastric emptying, detected as the decrease in phenol red concentration in the stomach relative to the vehicle control group, is considered significant.
• 1. […] Total phenol red remaining in the stomach was quantified by a colorimetric method at 560 nm. • 5. A >30% increase in gastric emptying, detected based on the phenol red concentration in comparison to the control group, is considered significant. […]

A short description of series [4]: Pharmacokinetic analysis in rats (i.v., s.c., p.o.). It is filed as in vivo. Particulars: rat, typical dose 2 mg/kg. On the procedure:
D. Pharmacokinetic Analysis of Representative Compounds of the Invention
Typical Dose • 1. Intravenous (i.v.): 2 mg/kg • 2. Subcutaneous (s.c): 2 mg/kg
Plasma Collection • 1. Same protocol for all dosing groups • 2.
Whole blood samples were chilled and immediately processed by centrifugation to obtain plasma.
Plasma samples were stored frozen (−70° C.) until analysis.

Setting [5] is: binding activity at the human ghrelin receptor, [125I]-ghrelin competition, GHS-R/HEK 293 membranes.
Where [6] appears, read: binding activity, standard method, TFA salts unless otherwise noted.
Setting [7] is: binding activity at the human ghrelin receptor, [125I]-ghrelin displacement.

The Ki is a dissociation constant, usually derived from enzyme kinetics or from competition with a known ligand. For orientation: EC50 means the concentration that produces a half-maximal response.

Chain of human ghrelin receptor (hGHS-R1a) (Q92847 whole entry): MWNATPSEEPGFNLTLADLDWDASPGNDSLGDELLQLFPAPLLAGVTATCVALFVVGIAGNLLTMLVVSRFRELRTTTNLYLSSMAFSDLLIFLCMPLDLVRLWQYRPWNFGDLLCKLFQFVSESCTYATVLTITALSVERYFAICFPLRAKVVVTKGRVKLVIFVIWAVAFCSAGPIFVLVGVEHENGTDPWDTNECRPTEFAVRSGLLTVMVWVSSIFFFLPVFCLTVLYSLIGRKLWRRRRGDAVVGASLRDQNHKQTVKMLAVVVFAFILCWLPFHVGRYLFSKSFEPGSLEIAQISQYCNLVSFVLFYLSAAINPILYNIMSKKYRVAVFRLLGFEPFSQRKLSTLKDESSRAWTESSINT
T1 sequence (Q92847 whole entry): as above
Chain of motilin receptor (O43193 whole entry): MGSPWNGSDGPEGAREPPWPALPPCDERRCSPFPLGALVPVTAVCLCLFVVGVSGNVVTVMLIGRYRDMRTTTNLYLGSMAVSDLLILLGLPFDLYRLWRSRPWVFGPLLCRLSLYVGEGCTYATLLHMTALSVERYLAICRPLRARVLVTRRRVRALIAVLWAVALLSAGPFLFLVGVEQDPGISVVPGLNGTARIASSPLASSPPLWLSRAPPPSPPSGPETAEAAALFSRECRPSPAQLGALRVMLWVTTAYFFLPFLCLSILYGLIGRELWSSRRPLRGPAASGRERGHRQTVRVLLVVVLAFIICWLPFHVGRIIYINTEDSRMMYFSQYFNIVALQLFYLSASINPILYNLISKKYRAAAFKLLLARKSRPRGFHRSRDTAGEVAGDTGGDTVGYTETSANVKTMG

For `CCC(C)C1NCCOc2ccccc2CCCNC(=O)C(Cc2ccc(OC)cc2)NC(=O)C(C)N(C)C1=O` (stereo not drawn) [compound 27], the Ki in series [1] (setting [5]) and in series [1] (setting [6]) was 0.1 to 10 nM each time. Also, the Selectivity on motilin receptor is on record as >7100/1. The EC50 in series [2] is 1 to 100 nM.
Consider `CC(C)C[C@@H]1NCCOc2ccccc2C=CCNC(=O)[C@H](Cc2ccccc2Cl)NC(=O)C2(CCCC2)NC1=O` (stereo in doubt) [compound 20], for which the Ki in series [1] (setting [5]) and in series [1] (setting [6]) was 0.1 to 10 nM in each case. Also, on motilin receptor, the Selectivity is recorded as 1044/1. Further, the half-maximal effective concentration (EC50) in series [2] lay within 1 to 100 nM.
For the compound `CC[C@H](C)[C@@H]1NCCOc2ccccc2CCCNC(=O)[C@@H](Cc2ccc(F)cc2)NC(=O)[C@@H](C)N(C)C1=O` [compound 26], the Ki in series [1] (setting [5]) and in series [1] (setting [6]) was 0.1 to 10 nM throughout. Further, the Selectivity at motilin receptor was >7700/1. In series [2], the EC50 is 1 to 100 nM.
On to `CC1C(=O)NC(Cc2ccc(F)cc2)C(=O)NCCCc2ncccc2OCCNC(C2CC2)C(=O)N1C` (single isomer, unassigned) [306a], for which the inhibition constant (Ki) in series [1] (setting [7]) and in series [1] (setting [6]) was 10 to 100 nM throughout. Further, the Selectivity on motilin receptor is recorded as 714/1. Also, the half-maximal effective concentration (EC50) in series [2] was in the range of 1 to 100 nM.
With `CC[C@H](C)[C@@H]1NCCOc2ccccc2CCCNC(=O)[C@@H](Cc2ccc3ccccc3c2)NC(=O)[C@@H](C)N(C)C1=O` [compound 31], the Ki in series [1] (setting [5]) and in series [1] (setting [6]) was 0.1 to 10 nM throughout. The Selectivity at motilin receptor was 4900/1. The EC50 in series [2] lay in the range of 1 to 100 nM.
With `CC(C)CC1NCCOc2ccccc2C=CCNC(=O)C(Cc2cccc(Cl)c2)NC(=O)C2(CCCC2)NC1=O` (stereo not drawn) [compound 21], the Ki in series [1] (setting [5]) and in series [1] (setting [6]) was 0.1 to 10 nM throughout. Also, the Selectivity on motilin receptor is reported as 1078/1. In addition, in series [2], the EC50 is 1 to 100 nM.
`CN1CC[C@]23c4c5ccc(O)c4O[C@H]2[C@@H](O)C=C[C@H]3[C@H]1C5` [Morphine, morphine]: the “gastric emptying and intestinal transit” value with morphine-treated rats is “significantly delayed gastric emptying and intestinal transit”.
Regarding `C[C@@H]1C(=O)N[C@H](Cc2ccc(O)c(C(C)(C)C)c2)C(=O)NCCCc2ccccc2OCCN[C@@H](C2CC2)C(=O)N1C` [compound 311], the Ki in series [1] (setting [6]) lay within 10 to 100 nM. Further, at motilin receptor, the Selectivity is recorded as 21/1.
As to `CCN(CC)CCNC(=O)c1cc(Cl)c(N)cc1OC` [Metoclopramide, reference compound], in series [3] (i.v. immediately after meal, FIG. 14), the “gastric emptying of a solid meal in naïve rat” value is given as “significant gastric emptying”.
Consider `CCC(C)C1NCCOc2ccccc2CCCNC(=O)C(Cc2ccccc2)NC(=O)C(C)N(CC)C1=O` (stereo not drawn) [compound 43], for which the Ki in series [1] (setting [5]) and in series [1] (setting [6]) was 10 to 100 nM in each case. Further, on motilin receptor, the Selectivity is 3700/1.
In the case of `CCC(C)C1NCCOc2ccccc2CCCNC(=O)C(Cc2ccc(Cl)cc2)NC(=O)C(C)N(C)C1=O` (stereo not drawn) [compound 25], the Ki in series [1] (setting [5]) lay in the range of 0.1 to 10 nM. Also, in series [4], the “Clearance” value amounted to 67 mL/min/kg and the “Elimination (t1/2, min)” value turned out to be 31 min. Further, the gastric emptying result in series [3] (fasted rats, 30 μg/kg) is recorded as “demonstrated gastric emptying”. In addition, the “increase in gastric emptying relative to the vehicle control group” value in series [3] (fasted rats, 100 μg/kg i.v.) was 39%.
Take `CC1C(=O)NC(Cc2ccc(F)cc2)C(=O)NCC2CC2c2ccccc2OCCNC(C2CC2)C(=O)N1C` (single isomer, unassigned) [389a]: in series [1] (setting [6]), the Ki lay within 10 to 100 nM. Further, the Selectivity on motilin receptor is reported as 450/1. Further, the EC50 in series [2] was in the range of 100 to 1000 nM.
On to `CC(C)C1NCCOc2ccccc2C=CCNC(=O)C(Cc2ccccc2)NC(=O)C(C)N(C)C1=O` (stereo not drawn) [compound 19], for which, in series [1] (setting [6]), the Ki is 100 to 1000 nM. For the same compound, the Selectivity at motilin receptor was >1700/1.
Turning to `CCC(C)C1NCCOc2ccccc2CCCNC(=O)C(CC(C)C)NC(=O)C(C)N(C)C1=O` (stereo not drawn) [compound 176], the Selectivity on motilin receptor is listed as 105/1.
Take `CC[C@H](C)[C@@H]1NCCOc2ccccc2CCCNC(=O)[C@@H](Cc2cccc(Cl)c2)NC(=O)[C@@H](C)N(C)C1=O` [compound 24]: the Ki in series [1] (setting [5]) and in series [1] (setting [6]) was 0.1 to 10 nM in each case. Further, the Selectivity at motilin receptor was 3039/1.
With `CCCC1NCCOc2ccccc2CCCNC(=O)C(Cc2ccccc2)NC(=O)C(C)N(C)C1=O` (stereo not drawn) [Compound 4], the Ki in series [1] (setting [5]) and in series [1] (setting [6]) was 10 to 100 nM throughout. Also, on motilin receptor, the Selectivity was 3012/1. The EC50 in series [2] was 1 to 100 nM.
In the case of `C[C@@H]1C(=O)N[C@H](Cc2ccccc2)C(=O)NCCCc2ccccc2OCCN[C@@H](C2CC2)C(=O)N1C` [compound 17], the Ki in series [1] (setting [5]) and in series [1] (setting [6]) was 0.1 to 10 nM each time. The Selectivity on motilin receptor is recorded as 2500/1. Moreover, the EC50 in series [2] lay in the range of 1 to 100 nM.
`CCC(C)C1NCCOc2ccccc2CCCNC(=O)C(Cc2cccs2)NC(=O)C(C)N(C)C1=O` (stereo not drawn) [compound 34]: the Selectivity on motilin receptor is given as >1000/1.
On to `CC1C(=O)NC(Cc2ccc(Cl)cc2Cl)C(=O)NCCCc2ccccc2OCCNC(C2CC2)C(=O)N1C` (stereo not drawn) [compound 314], for which the Ki in series [1] (setting [7]) and in series [1] (setting [6]) was 0.1 to 10 nM throughout. The Selectivity on motilin receptor was >5500/1. Also, in series [2], the concentration giving a half-maximal response (EC50) lay within 1 to 100 nM.
As for `CC1COc2ccccc2CCCNC(=O)C(Cc2ccc(F)cc2)NC(=O)C(C)N(C)C(=O)C(C2CC2)N1` (stereo not drawn) [compound 394], the Selectivity at motilin receptor is given as 1700/1.
Take `CCCC1NCCOc2ccccc2CCCNC(=O)C(Cc2ccc(O)cc2)NC(=O)CN(C)C1=O` (stereo not drawn) [compound 7]: the Selectivity on motilin receptor is on record as >100/1.
